Measurements: US20180186742A1, “PICOLINAMIDES AS FUNGICIDES” (Dow AgroSciences LLC, priority 2017, published 2018)
Where two headings read alike, the source gives them in different places.

Tests used:
Assay type in all cases: in vivo
[1] = system: Phakopsora pachyrhizi; experiment: Asian soybean rust (PHAKPA), disease control on soybean seedlings; conditions: High volume application at 25 ppm
In short: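 Two-week-old Williams 82 soybean seedlings were sprayed to run-off with compound in acetone/water (1:9) containing 0.011% Tween 20. Inoculation was 3 days before (curative) or 1 day after (protectant) treatment, followed by 24 h dark dew at 22 °C, 100% RH, then 23 °C; disease severity scored on sprayed leaves.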

[2] = system: Parastagonospora nodorum; experiment: Wheat glume blotch (LEPTNO), disease control on wheat seedlings; conditions: 1DP test at 100 ppm, read-out: LEPTNO disease control rating
Experimental: Technical grades of materials were dissolved in acetone, which were then mixed with nine volumes of water containing 110 ppm Triton X-100. The fungicide solutions were applied onto wheat seedlings using an automated booth sprayer to run-off. All sprayed plants were allowed to air dry prior to further handling. All fungicides were evaluated using the aforementioned method for their activity vs. all target diseases, unless stated otherwise. Wheat leaf blotch and brown rust activity were also evaluated using track spray applications, in which case the fungicides were formulated as EC formulations, containing 0.1% Trycol 5941 in the spray solutions. Wheat plants (variety Yuma) were grown from seed in a greenhouse in 50% mineral soil/50% soil-less Metro mix until the first leaf was fully emerged, with 7-10 seedlings per pot. These plants were inoculated with an aqueous spore suspension of Parastagonospora nodorum 24 hr after fungicide treatments. After inoculation the plants were kept in 100% relative humidity (one day in a dark dew chamber followed by two days in a lighted dew chamber at 20° C.) to permit spores to germinate and infect the leaf. The plants were then transferred to a greenhouse set at 20° C. for disease to develop. Fungicide formulation, application and disease assessment followed the procedures as described in the Example A.

[3] = system: Magnaporthe grisea; Anamorph: Pyricularia oryzae; experiment: whole plant or invertebrate; conditions: 24 h, read-out: PYRIOR Disease Control
[4] = system: Glomerella lagenarium; Anamorph: Colletotrichum lagenarium; experiment: Cucumber anthracnose (COLLLA), disease control on cucumber seedlings; conditions: Colletotrichum orbiculare, 1DP test at 100 ppm, read-out: COLLLA disease control rating
Experimental: Technical grades of materials were dissolved in acetone, which were then mixed with nine volumes of water containing 110 ppm Triton X-100. The fungicide solutions were applied onto wheat seedlings using an automated booth sprayer to run-off. All sprayed plants were allowed to air dry prior to further handling. All fungicides were evaluated using the aforementioned method for their activity vs. all target diseases, unless stated otherwise. Wheat leaf blotch and brown rust activity were also evaluated using track spray applications, in which case the fungicides were formulated as EC formulations, containing 0.1% Trycol 5941 in the spray solutions. Cucumber seedlings (variety Bush Pickle) were propagated in soil-less Metro mix, with each pot having one plant, and used in the test when 12 to 14 days old. Test plants were inoculated with an aqueous spore suspension of Colletotrichum lagenarium 24 hr after fungicide treatments. After inoculation the plants were kept in a dew room at 22° C. with 100% relative humidity for 48 hr to permit spores to germinate and infect the leaf. The plants were then transferred to a growth room set at 22° C. for disease to develop. Fungicide formulation, application and disease assessment on the sprayed leaves followed the procedures as described in the Example A.

[5] = system: Puccinia triticina; experiment: Wheat brown rust (PUCCRT), disease control on wheat seedlings; conditions: low volume application at 121.5 g/H
In short: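 Compounds in acetone, diluted with nine volumes of water containing 110 ppm Triton X-100, sprayed to run-off on first-leaf Yuma wheat seedlings; track-spray tests used EC formulations with 0.1% Trycol 5941. Puccinia triticina spores applied before or after treatment. Overnight dark dew room at 22° C, 100% humidity, then greenhouse at 24° C.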

[6] = system: Uncinula necator; experiment: Grape powdery mildew (UNCINE), disease control on grape seedlings; conditions: Erysiphe necator, 24 h, 1DP (1 Day Protectant) test at 100 ppm
Experimental: Technical grades of materials were dissolved in acetone, which were then mixed with nine volumes of water containing 110 ppm Triton X-100. The fungicide solutions were applied onto wheat seedlings using an automated booth sprayer to run-off. All sprayed plants were allowed to air dry prior to further handling. All fungicides were evaluated using the aforementioned method for their activity vs. all target diseases, unless stated otherwise. Wheat leaf blotch and brown rust activity were also evaluated using track spray applications, in which case the fungicides were formulated as EC formulations, containing 0.1% Trycol 5941 in the spray solutions. Grape seedlings (variety Carignane) were grown in soil-less Metro mix, with one plant per pot, and used in the test when approximately 1 month old. Plants were inoculated 24 hr after fungicide treatment by shaking spores from infected leaves over test plants. Plants were maintained in a greenhouse set at 20° C. until disease was fully developed. Fungicide formulation, application and disease assessment on sprayed leaves followed the procedures as described in the Example A.

[7] = system: Cercospora beticola; experiment: Leaf spot of sugar beets (CERCBE), disease control on sugar beet plants; conditions: 1DP test at 100 ppm, read-out: CERCBE disease control rating
Experimental: Technical grades of materials were dissolved in acetone, which were then mixed with nine volumes of water containing 110 ppm Triton X-100. The fungicide solutions were applied onto wheat seedlings using an automated booth sprayer to run-off. All sprayed plants were allowed to air dry prior to further handling. All fungicides were evaluated using the aforementioned method for their activity vs. all target diseases, unless stated otherwise. Wheat leaf blotch and brown rust activity were also evaluated using track spray applications, in which case the fungicides were formulated as EC formulations, containing 0.1% Trycol 5941 in the spray solutions. Sugar beet plants (variety HH88) were grown in soil-less Metro mix and trimmed regularly to maintain a uniform plant size prior to test. Plants were inoculated with a spore suspension 24 hr after fungicide treatments. Inoculated plants were kept in a dew chamber at 22° C. for 48 hr then incubated in a greenhouse set at 24° C. under a clear plastic hood with bottom ventilation until disease symptoms were fully expressed. Fungicide formulation, application and disease assessment on the sprayed leaves followed the procedures as described in the Example A.

[8] = 24 h, 1 Day Protectant, read-out: PHAKPA 1DP disease control rating
[9] = 72 h, 3 Day Curative, read-out: PHAKPA 3DC disease control rating
[10] = 24 h, 1 Day Protectant, read-out: PUCCRT disease control, 1DP, LV activity
[11] = 72 h, 3 Day Curative, read-out: PUCCRT disease control, 3DC, LV activity

Row | Structure (SMILES) | pest or weed control at 25 ppm [1, 8] | pest or weed control at 25 ppm [1, 9] | pest or weed control at 100 ppm [2] | pest or weed control at 100 ppm [3] | pest or weed control at 100 ppm [4] | pest or weed control at 121.5 g/ha [5, 10] | pest or weed control at 121.5 g/ha [5, 11] | pest or weed control at 100 ppm [6] | pest or weed control at 100 ppm [7]
1 | COc1ccnc(C(=O)N[C@@H](C)C(=O)O[C@@H](C)[C@H](c2ccc(F)cc2C)C(C)C)c1OC(C)=O [Compound 186] | > 80% | > 80% | > 80% | > 80% | < 0% | > 80% | > 80% | > 80% | > 80%
2 | CCC(CC)[C@@H](c1ccc(F)cc1C)[C@H](C)OC(=O)[C@H](C)NC(=O)c1nccc(OC)c1OC(C)=O [Compound 187] | > 80% | < 80% | < 80% | > 80% | > 80% | > 80% | < 80% | > 80% | > 80%
3 | COc1ccnc(C(=O)N[C@@H](C)C(=O)O[C@@H](C)[C@H](c2ccc(F)cc2C)C(C)C)c1OC(=O)C(C)C [Compound 216] | > 80% | > 80% | > 80% | > 80% | < 80% | > 80% | > 80% | > 80% | > 80%
4 | COc1ccnc2c(=O)n([C@@H](C)C(=O)O[C@@H](C)[C@H](c3ccc(F)cc3C)C(C)C)c(=O)oc12 [Compound 217] | > 80% | > 80% | > 80% | > 80% | < 0% | > 80% | > 80% | > 80% | > 80%
5 | COc1cc[n+]([O-])c(C(=O)N[C@@H](C)C(=O)O[C@@H](C)[C@H](c2ccc(F)cc2C)C(C)C)c1O [Compound 218] | < 80% | < 80% | > 80% | > 80% | < 80% | > 80% | < 80% | > 80% | > 80%
6 | COc1ccnc(C(=S)N[C@@H](C)C(=O)O[C@@H](C)[C@H](c2ccc(F)cc2C)C(C)C)c1OC(C)=O [Compound 219] | > 80% | > 80% | > 80% | > 80% | < 80% | > 80% | > 80% | > 80% | > 80%
7 | COCCC(=O)Oc1c(OC)ccnc1C(=O)N[C@@H](C)C(=O)O[C@@H](C)[C@H](c1ccc(F)cc1C)C(C)C [Compound 220] | > 80% | > 80% | > 80% | > 80% | < 80% | > 80% | > 80% | > 80% | > 80%
8 | COc1ccnc(C(=O)N[C@@H](C)C(=O)O[C@@H](C)[C@H](c2ccc(F)cc2C)C(C)C)c1OC(=O)C1CCCC1 [Compound 354] | > 80% | > 80% | > 80% | < 80% | > 80% | > 80% | < 80% | > 80% | > 80%
9 | CCC(C)C(=O)Oc1c(OC)ccnc1C(=O)N[C@@H](C)C(=O)O[C@@H](C)[C@H](c1ccc(F)cc1C)C(C)C (some centres unmarked) [Compound 355] | > 80% | > 80% | > 80% | < 80% | > 80% | > 80% | < 80% | > 80% | > 80%
10 | COc1ccnc(C(=O)N[C@@H](C)C(=O)O[C@@H](C)[C@H](c2ccc(F)cc2C)C(C)C)c1OC(=O)CC(C)C [Compound 356] | > 80% | > 80% | > 80% | < 80% | < 80% | > 80% | < 80% | > 80% | > 80%
11 | CCC(=O)Oc1c(OC)ccnc1C(=O)N[C@@H](C)C(=O)O[C@@H](C)[C@H](c1ccc(F)cc1C)C(C)C [Compound 357] | > 80% | > 80% | > 80% | < 80% | > 80% | > 80% | > 80% | > 80% | > 80%
12 | CCOC(=O)Oc1c(OC)ccnc1C(=O)N(C(=O)OCC)[C@@H](C)C(=O)O[C@@H](C)[C@H](c1ccc(F)cc1C)C(C)C [Compound 371] | > 80% | > 80% | > 80% | < 80% | > 80% | – | – | > 80% | > 80%
13 | CCOC(=O)Oc1c(OC)ccnc1C(=O)N[C@@H](C)C(=O)O[C@@H](C)[C@H](c1ccc(F)cc1C)C(C)C [Compound 372] | > 80% | > 80% | > 80% | < 80% | > 80% | – | – | > 80% | > 80%
